Experimental data taken from PubChem BioAssay (NCI).
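Interpolation was linear, between the two tested concentrations surrounding the appropriate level; five concentrations were tested over 48 hours in 96-well plates. GI50 is the concentration that inhibits growth by half. At the TGI there is no net growth.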

Columns and labels:
Assay in all cases: NCI tumour cell line growth inhibition, 48 h
[1] = test system: NCI-H460 lung
[2] = test system: OVCAR-5 ovarian
[3] = test system: SR leukemia
[4] = test system: HCT-15 colon
[5] = test system: RPMI-8226 leukemia
[6] = test system: T-47D breast
[7] = test system: SNB-19 CNS
[8] = test system: HT29 colon
[9] = test system: MOLT-4 leukemia
[10] = test system: DU-145 prostate
[11] = test system: MDA-MB-231 breast
[12] = test system: SW-620 colon
[13] = test system: MDA-MB-435
[14] = test system: HL-60(TB) leukemia
[15] = test system: SF-268 CNS
[16] = test system: LOX IMVI melanoma
[17] = test system: A549 NSCLC
[18] = test system: PC-3 prostate
[19] = test system: MCF7 breast
[20] = test system: SF-539 CNS
[21] = test system: OVCAR-3 ovarian
[22] = test system: IGROV1 ovarian
[23] = test system: HS 578T breast
[24] = test system: HOP-62 NSCLC
[25] = test system: MALME-3M melanoma
[26] = test system: CAKI-1 renal
[27] = test system: NCI/ADR-RES ovarian
[28] = test system: HCT-116 colon
[29] = test system: KM12 colon
[30] = test system: EKVX NSCLC
[31] = test system: M14 melanoma
[32] = test system: 786-0 renal
[33] = test system: U251 CNS
[34] = test system: RXF 393 renal
[35] = test system: COLO 205 colon
[36] = test system: UO-31 renal
[37] = test system: NCI-H522 lung
[38] = test system: OVCAR-4 ovarian
[39] = test system: SK-OV-3 ovarian
[40] = test system: ACHN renal
[41] = test system: SN12C renal
[42] = test system: BT-549 breast
[43] = test system: A498 renal
[44] = test system: SK-MEL-5 melanoma
[45] = test system: SK-MEL-2 melanoma
[46] = test system: NCI-H226 lung
[47] = test system: UACC-257 melanoma
[48] = test system: SK-MEL-28 melanoma
[49] = test system: OVCAR-8 ovarian
[50] = test system: CCRF-CEM leukemia
[51] = test system: SNB-75 CNS
[52] = test system: HCC-2998 colon
[53] = test system: HOP-92 NSCLC
[54] = test system: SF-295 CNS
[55] = test system: K-562 leukemia
[56] = test system: TK-10 renal
[57] = test system: NCI-H23 lung

In the case of `CCCCOc1ccc(S(=O)(=O)N2CCN(c3nc(C)cc(N4CCOCC4)n3)CC2)cc1`, the GI50 [1] is reported as 1670 nM, the TGI [1] is reported as > 100 µM and the GI50 [2] is reported as > 100000 nM. For the same compound, the TGI [2] was > 100 µM, the GI50 [3] was 5.46 µM and the TGI [3] was > 100 µM. For the same compound, the GI50 [4] was 2090 nM, the TGI [4] was > 100 µM and the GI50 [5] was 2640 nM. For the same compound, the TGI [5] was > 100 µM, the GI50 [6] was > 100000 nM and the TGI [6] was > 100 µM. The GI50 [7] was > 100 µM, the TGI [7] was > 100 µM and the GI50 [8] was 888 nM. For the same compound, the TGI [8] was 6.23 µM, the GI50 [9] was 2270 nM and the TGI [9] was > 100 µM. For the same compound, the GI50 [10] was 1010 nM, the TGI [10] was > 100 µM and the TGI [11] was > 100 µM. The GI50 [12] was 2330 nM, the TGI [12] was > 100 µM and the GI50 [13] was 1450 nM. For the same compound, the TGI [13] was > 100 µM, the GI50 [14] was 420 nM and the TGI [14] was > 100 µM. The GI50 [15] was 2.32 µM, the TGI [15] was > 100 µM and the GI50 [16] was 294 nM. The TGI [16] was 942 nM, the GI50 [17] was 3.85 µM and the TGI [17] was > 100 µM. For the same compound, the GI50 [18] was 4.54 µM, the TGI [18] was > 100 µM and the GI50 [19] was > 100000 nM. The TGI [19] was > 100 µM, the GI50 [20] was > 100 µM and the TGI [20] was > 100 µM. The GI50 [21] was > 100 µM, the TGI [21] was > 100 µM and the GI50 [22] was 1090 nM. The TGI [22] was > 100 µM, the GI50 [23] was > 100000 nM and the TGI [23] was > 100 µM. For the same compound, the GI50 [24] was > 100 µM, the TGI [24] was > 100 µM and the GI50 [25] was > 100000 nM. The TGI [25] was > 100 µM, the GI50 [26] was 2110 nM and the TGI [26] was > 100 µM. The GI50 [27] was 2450 nM, the TGI [27] was > 100 µM and the GI50 [28] was 1440 nM. For the same compound, the TGI [28] was > 100 µM, the GI50 [29] was 3.12 µM and the TGI [29] was > 100 µM.
Work on `CCCCNNC(=O)c1ccc(-c2cccc(F)c2F)cc1` yielded a GI50 [1] of 2710 nM, a TGI [1] of 21.3 µM and a GI50 [2] of 2020 nM. The TGI [2] was 16.7 µM, the GI50 [30] was 3.32 µM and the TGI [30] was 56.3 µM. The GI50 [31] was 2930 nM, the TGI [31] was 20.8 µM and the GI50 [3] was 1.77 µM. For the same compound, the TGI [3] was 57.3 µM, the GI50 [32] was 3.75 µM and the TGI [32] was 18.9 µM. For the same compound, the GI50 [4] was 3080 nM, the TGI [4] was 17 µM and the GI50 [5] was 800 nM. The TGI [5] was 7.88 µM, the GI50 [33] was 2580 nM and the TGI [33] was 15.2 µM. The GI50 [6] was 1140 nM, the TGI [6] was > 100 µM and the GI50 [7] was 3.23 µM. It also gave a TGI [7] of 19.8 µM, a GI50 [34] of 1310 nM and a TGI [34] of 3.67 µM. The GI50 [8] was 2580 nM, the TGI [8] was > 100 µM and the GI50 [9] was 2490 nM. For the same compound, the TGI [9] was > 100 µM, the GI50 [35] was 1820 nM and the TGI [35] was 5.56 µM. The GI50 [10] was 2430 nM, the TGI [10] was 43.8 µM and the GI50 [11] was 5.49 µM. For the same compound, the TGI [11] was 34.3 µM, the GI50 [36] was 1780 nM and the TGI [36] was 7.25 µM. For the same compound, the GI50 [37] was 2300 nM, the TGI [37] was 20.7 µM and the GI50 [12] was 2920 nM. For the same compound, the TGI [12] was 12.5 µM, the GI50 [38] was 4.03 µM and the TGI [38] was > 100 µM. The GI50 [13] was 2230 nM, the TGI [13] was 8.25 µM and the GI50 [39] was 4.12 µM. It also gave a TGI [39] of 42.5 µM, a GI50 [14] of 1070 nM and a TGI [14] of 16.1 µM. It also gave a GI50 [40] of 2300 nM, a TGI [40] of 7.06 µM and a GI50 [15] of 4.26 µM. For the same compound, the TGI [15] was 18.7 µM, the GI50 [41] was 4.29 µM and the TGI [41] was 79.9 µM. For the same compound, the GI50 [42] was 5.11 µM, the TGI [42] was > 100 µM and the GI50 [17] was 3.36 µM. It also gave a TGI [17] of 18.4 µM, a GI50 [18] of 3.56 µM and a TGI [18] of 27.4 µM. The GI50 [43] was 1040 nM, the TGI [43] was 2920 nM and the GI50 [44] was 1800 nM. The TGI [44] was 3.71 µM, the GI50 [19] was 776 nM and the TGI [19] was 17.5 µM. For the same compound, the GI50 [45] was 3.1 µM, the TGI [45] was 53.6 µM and the GI50 [46] was 2580 nM. For the same compound, the TGI [46] was 17.1 µM, the GI50 [20] was 3.19 µM and the TGI [20] was 65.6 µM. For the same compound, the GI50 [22] was 2020 nM, the TGI [22] was 11.1 µM and the GI50 [23] was 2440 nM. For the same compound, the TGI [23] was 82.4 µM, the GI50 [24] was 3.09 µM and the TGI [24] was > 100 µM. The GI50 [25] was 613 nM, the TGI [25] was 5.28 µM and the GI50 [47] was 1390 nM. It also gave a TGI [47] of 31.3 µM, a GI50 [26] of 2760 nM and a TGI [26] of 6.02 µM. For the same compound, the GI50 [48] was 2750 nM, the TGI [48] was 63.7 µM and the GI50 [27] was 999 nM. The TGI [27] was 6.67 µM, the GI50 [49] was 1490 nM and the TGI [49] was > 100 µM. For the same compound, the GI50 [50] was 3.08 µM, the TGI [50] was > 100 µM and the GI50 [51] was 894 nM. It also gave a TGI [51] of 8.29 µM, a GI50 [52] of 1480 nM and a TGI [52] of 4.11 µM. It also gave a GI50 [28] of 2570 nM, a TGI [28] of 11.4 µM and a GI50 [53] of 1040 nM. The TGI [53] was 5.67 µM, the GI50 [54] was 2000 nM and the TGI [54] was 4.78 µM. It also gave a GI50 [29] of 4.04 µM, a TGI [29] of 16.1 µM and a GI50 [55] of 1290 nM. For the same compound, the TGI [55] was > 100 µM, the GI50 [56] was 959 nM and the TGI [56] was 7.9 µM. It also gave a GI50 [57] of 2390 nM and a TGI [57] of 18.2 µM.
